The text below walks through data of paper PMC6269914, “In Vitro Evaluation of Novel Inhibitors against the NS2B-NS3 Protease of Dengue Fever Virus Type 4” (Molecules, 2013).

The target of assay [1] is T1, DENV4 NS2B-NS3pro (Dengue virus type 4, UniProt Q2YHF0, DELINS1442-1474GGGGSGGGG). The experiment in a line: In vitro inhibition assay of recombinant NS2B-NS3pro with fluorogenic AMC peptide substrate. In kind it is biochemical, dengue virus type 4 (DENV4). To be noted: primary inhibition assay at a 100 μM concentration of inhibitors; Table S1.
T1 sequence (Q2YHF0 1475-1660, added parts left off, stated change not applied): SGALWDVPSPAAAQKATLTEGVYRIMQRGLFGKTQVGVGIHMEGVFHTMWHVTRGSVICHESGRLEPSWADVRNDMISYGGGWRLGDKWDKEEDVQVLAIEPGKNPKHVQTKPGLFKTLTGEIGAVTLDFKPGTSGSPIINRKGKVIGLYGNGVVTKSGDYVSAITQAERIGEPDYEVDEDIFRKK
Assay [2] deals with T1, DENV4 NS2B-NS3pro. The experiment in a line: Inhibitor enzyme kinetics (Lineweaver-Burk and Dixon plots) against NS2B-NS3pro. The note with it: AMC peptide substrates. The format is biochemical, dengue virus type 4 (DENV4). The procedure:
Inhibitory kinetic experiments were performed at different constant inhibitor concentrations and different substrate concentrations. Lineweaver–Burk and Dixon plots were used to analyze the inhibition modes of these compounds. Ki values were calculated from the Dixon plots.
The type of inhibition was determined using Lineweaver–Burk plots, and Ki values were determined with a Dixon plot (1/v as a function of [I], inhibitor concentration) from different inhibitor concentrations.

Regarding `CCN(CC)CCn1c(NC(=O)c2ccc(Cn3nc([N+](=O)[O-])c(Cl)c3C)o2)nc2ccccc21` [Compound 2, 5-((4-chloro-5-methyl-3-nitro-1H-pyrazol-1-yl)methyl)-N-(1-(2-(diethylamino)ethyl)-1H-benzo[d]imidazol-2-yl)furan-2-carboxamide], the “Inhibition Activity” value in assay [1] was 95.23%. Moreover, in assay [2], the Inhibition mode entry was “competitive inhibitors”.

`CC(=O)N1N=C(c2cc(-c3ccccc3)nc3ccccc23)OC1c1ccc(C(=O)O)cc1` (stereo not shown) [Compound 14, 4-(3-acetyl-5-(2-phenylquinolin-4-yl)-2,3-dihydro-1,3,4-oxadiazol-2-yl)benzoic acid]: the “Inhibition Activity” value in assay [1] is given as 98.15%. Moreover, the Inhibition mode result in assay [2] is “competitive inhibitors”.
